Paper PMC5909127, “Optimization of a “bump-and-hole” approach to allele-selective BET bromodomain inhibition” (Chemical Science, 2018)

Tests used:
[1] = tested on: L/V somatic BET bromodomains; assay: ITC; settings: L/V BET bromodomains
[2] = molecular target: GFP-labelled L/V BRD4 in U2OS cells (Homo sapiens, UniProt O60885, L387V/L94V); assay: FRAP; settings: 200 nM, 2 μM SAHA
[3] = molecular target: BRD4 BD2 L/V (Homo sapiens, UniProt O60885, L387V); assay: ITC; type: binding
[4] = tested on: GABA (non-selective); assay: CEREP ExpresSProfile; type: binding; settings: 1 µM
[5] = tested on: SKCa channel; assay: CEREP ExpresSProfile; type: binding; settings: 1 µM
[6] = tested on: alpha 1 (non-selective); assay: CEREP ExpresSProfile; type: binding; settings: 1 µM
[7] = molecular target: beta 2 (h) (Homo sapiens, UniProt P07550); assay: CEREP ExpresSProfile; settings: read-out: Mean % of control specific binding (±SD)
[8] = molecular target: T1, BRD4 BD1 WT (Homo sapiens, UniProt O60885); assay: competitive AlphaLISA; type: binding; settings: pIC50 BRD4 BD1 WT, separated enantiomers test; total compound concentration
[9] = molecular target: mu (MOP) (h) (Homo sapiens, UniProt P35372); assay: CEREP ExpresSProfile; settings: read-out: Mean % of control specific binding (±SD)
mu (MOP) (h), sequence (P35372 whole entry): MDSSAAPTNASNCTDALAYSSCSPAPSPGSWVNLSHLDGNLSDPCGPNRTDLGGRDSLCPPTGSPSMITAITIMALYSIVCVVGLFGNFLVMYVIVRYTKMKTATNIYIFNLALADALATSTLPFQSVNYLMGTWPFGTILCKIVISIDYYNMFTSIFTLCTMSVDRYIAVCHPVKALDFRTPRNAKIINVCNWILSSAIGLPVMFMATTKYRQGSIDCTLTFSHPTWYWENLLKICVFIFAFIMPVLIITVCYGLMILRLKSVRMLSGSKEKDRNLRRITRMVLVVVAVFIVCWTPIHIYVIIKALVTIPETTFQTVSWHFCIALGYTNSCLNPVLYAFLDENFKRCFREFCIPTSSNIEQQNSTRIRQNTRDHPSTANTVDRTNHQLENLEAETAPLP

[10] = molecular target: BRD2 BD1 WT (Homo sapiens, UniProt P25440); assay: ITC; type: binding
BRD2 BD1 WT, sequence (P25440 71-176): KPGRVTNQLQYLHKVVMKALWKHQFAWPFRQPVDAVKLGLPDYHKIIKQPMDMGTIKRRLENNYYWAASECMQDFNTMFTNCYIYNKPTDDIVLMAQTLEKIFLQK

[11] = molecular target: BRD2 BD2 L/V (Homo sapiens, UniProt P25440, L383V); assay: ITC; type: binding
BRD2 BD2 L/V, sequence (P25440 344-455 L383V): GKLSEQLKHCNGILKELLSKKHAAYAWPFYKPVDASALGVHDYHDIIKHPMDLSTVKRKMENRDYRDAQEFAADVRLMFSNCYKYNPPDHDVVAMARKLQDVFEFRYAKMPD

[12] = molecular target: H1 (h) (Homo sapiens, UniProt P35367); assay: CEREP ExpresSProfile; settings: read-out: Mean % of control specific binding (±SD)
[13] = molecular target: 5-HT1A (h) (Homo sapiens, UniProt P08908); assay: CEREP ExpresSProfile; settings: read-out: Mean % of control specific binding (±SD)
5-HT1A (h), sequence (P08908 whole entry): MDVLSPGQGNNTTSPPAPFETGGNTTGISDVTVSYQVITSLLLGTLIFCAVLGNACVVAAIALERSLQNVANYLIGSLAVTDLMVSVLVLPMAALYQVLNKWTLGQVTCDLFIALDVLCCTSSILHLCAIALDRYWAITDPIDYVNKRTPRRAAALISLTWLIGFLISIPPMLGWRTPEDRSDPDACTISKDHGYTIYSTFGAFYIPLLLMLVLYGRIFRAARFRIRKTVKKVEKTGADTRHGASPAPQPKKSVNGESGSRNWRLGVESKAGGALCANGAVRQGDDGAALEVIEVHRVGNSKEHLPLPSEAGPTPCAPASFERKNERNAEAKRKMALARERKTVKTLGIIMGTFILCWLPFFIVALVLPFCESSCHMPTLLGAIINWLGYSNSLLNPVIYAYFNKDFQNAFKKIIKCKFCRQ

[14] = molecular target: T2, BRD4 BD1 L/V (Homo sapiens, UniProt O60885, L94V); assay: ITC; type: binding; settings: total compound concentration
[15] = molecular target: dopamine transporter (h) (Homo sapiens, UniProt Q01959); assay: CEREP ExpresSProfile; settings: read-out: Mean % of control specific binding (±SD)
dopamine transporter (h), sequence (Q01959 whole entry): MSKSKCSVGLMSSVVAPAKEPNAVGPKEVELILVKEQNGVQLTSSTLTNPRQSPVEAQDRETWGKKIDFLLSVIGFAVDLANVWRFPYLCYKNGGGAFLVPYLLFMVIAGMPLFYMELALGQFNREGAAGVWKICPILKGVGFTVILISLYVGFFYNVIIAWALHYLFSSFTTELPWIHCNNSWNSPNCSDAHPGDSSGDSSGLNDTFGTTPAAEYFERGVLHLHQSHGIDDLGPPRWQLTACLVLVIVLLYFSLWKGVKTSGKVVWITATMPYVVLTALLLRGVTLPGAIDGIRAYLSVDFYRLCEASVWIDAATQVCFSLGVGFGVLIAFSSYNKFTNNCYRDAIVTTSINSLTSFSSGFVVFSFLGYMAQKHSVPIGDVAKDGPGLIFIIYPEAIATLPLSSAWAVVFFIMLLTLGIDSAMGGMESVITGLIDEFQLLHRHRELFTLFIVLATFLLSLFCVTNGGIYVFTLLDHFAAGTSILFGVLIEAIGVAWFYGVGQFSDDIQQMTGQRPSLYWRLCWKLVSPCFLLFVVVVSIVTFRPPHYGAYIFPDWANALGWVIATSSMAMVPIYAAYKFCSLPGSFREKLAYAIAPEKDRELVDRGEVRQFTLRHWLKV
Description: (§1) Receptor Reference Compound Mean % of control specific
Receptor & Ion-Channel Screening
CEREP ExpresSProfile panel

[16] = molecular target: T1, BRD4 BD1 WT; assay: ITC; type: binding
[17] = molecular target: ETA (h) (Homo sapiens, UniProt P25101); assay: CEREP ExpresSProfile; settings: read-out: Mean % of control specific binding (±SD)
ETA (h), sequence (P25101 21-427): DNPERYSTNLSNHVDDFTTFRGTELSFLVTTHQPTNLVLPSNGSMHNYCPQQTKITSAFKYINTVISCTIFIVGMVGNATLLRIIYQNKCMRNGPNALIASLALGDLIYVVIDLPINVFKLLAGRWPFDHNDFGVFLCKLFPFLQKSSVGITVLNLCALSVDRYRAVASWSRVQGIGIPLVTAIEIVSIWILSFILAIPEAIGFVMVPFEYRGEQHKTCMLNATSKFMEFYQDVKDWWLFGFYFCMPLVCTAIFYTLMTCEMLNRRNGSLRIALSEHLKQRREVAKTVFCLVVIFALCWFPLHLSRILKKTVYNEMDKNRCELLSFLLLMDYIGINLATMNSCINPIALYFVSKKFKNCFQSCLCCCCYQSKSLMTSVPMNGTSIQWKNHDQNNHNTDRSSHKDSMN
Description: as §1
Receptor & Ion-Channel Screening
CEREP ExpresSProfile panel

[18] = molecular target: A2A (h) (Homo sapiens, UniProt P29274); assay: CEREP ExpresSProfile; settings: read-out: Mean % of control specific binding (±SD)
A2A (h), sequence (P29274 whole entry): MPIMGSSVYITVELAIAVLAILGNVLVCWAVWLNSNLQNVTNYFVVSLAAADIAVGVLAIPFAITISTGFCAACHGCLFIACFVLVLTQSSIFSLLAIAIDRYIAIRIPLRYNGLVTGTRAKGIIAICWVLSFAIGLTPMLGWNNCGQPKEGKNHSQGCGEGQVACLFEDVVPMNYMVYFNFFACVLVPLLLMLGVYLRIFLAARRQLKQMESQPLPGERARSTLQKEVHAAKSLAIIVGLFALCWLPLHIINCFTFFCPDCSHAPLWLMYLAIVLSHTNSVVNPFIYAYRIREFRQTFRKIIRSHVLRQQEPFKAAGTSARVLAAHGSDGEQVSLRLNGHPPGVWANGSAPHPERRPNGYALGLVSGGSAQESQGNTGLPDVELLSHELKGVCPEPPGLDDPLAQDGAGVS

[19] = molecular target: CB1 (h) (Homo sapiens, UniProt P21554); assay: CEREP ExpresSProfile; settings: read-out: Mean % of control specific binding (±SD)
CB1 (h), sequence (P21554 whole entry): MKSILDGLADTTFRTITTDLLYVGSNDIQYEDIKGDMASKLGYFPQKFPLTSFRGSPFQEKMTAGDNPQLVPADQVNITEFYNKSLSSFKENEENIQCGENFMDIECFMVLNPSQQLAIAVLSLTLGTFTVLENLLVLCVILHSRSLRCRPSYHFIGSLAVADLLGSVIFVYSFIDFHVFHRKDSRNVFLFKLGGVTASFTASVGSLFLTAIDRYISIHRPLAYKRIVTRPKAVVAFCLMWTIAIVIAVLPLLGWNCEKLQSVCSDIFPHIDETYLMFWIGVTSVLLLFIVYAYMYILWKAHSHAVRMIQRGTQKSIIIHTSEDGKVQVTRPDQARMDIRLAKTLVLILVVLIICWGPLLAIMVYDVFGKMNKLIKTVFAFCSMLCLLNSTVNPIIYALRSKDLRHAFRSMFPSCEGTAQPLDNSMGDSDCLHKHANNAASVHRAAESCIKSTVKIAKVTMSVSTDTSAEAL
Description: as §1
Receptor & Ion-Channel Screening
CEREP ExpresSProfile panel

[20] = molecular target: BRD2 BD1 L/V (Homo sapiens, UniProt P25440, L110V); assay: ITC; type: binding
BRD2 BD1 L/V, sequence (P25440 71-176 L110V limits assumed): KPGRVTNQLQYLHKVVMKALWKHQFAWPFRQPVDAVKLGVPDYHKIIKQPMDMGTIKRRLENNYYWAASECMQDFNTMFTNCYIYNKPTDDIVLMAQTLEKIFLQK

[21] = molecular target: BRD2 BD2 WT (Homo sapiens, UniProt P25440); assay: ITC; type: binding
BRD2 BD2 WT, sequence (P25440 344-455): as the sequence (P25440 344-455 L383V) above, with V40L counted along it

[22] = molecular target: 5-HT7 (h) (Homo sapiens, UniProt P34969); assay: CEREP ExpresSProfile; settings: read-out: Mean % of control specific binding (±SD)
5-HT7 (h), sequence (P34969 whole entry): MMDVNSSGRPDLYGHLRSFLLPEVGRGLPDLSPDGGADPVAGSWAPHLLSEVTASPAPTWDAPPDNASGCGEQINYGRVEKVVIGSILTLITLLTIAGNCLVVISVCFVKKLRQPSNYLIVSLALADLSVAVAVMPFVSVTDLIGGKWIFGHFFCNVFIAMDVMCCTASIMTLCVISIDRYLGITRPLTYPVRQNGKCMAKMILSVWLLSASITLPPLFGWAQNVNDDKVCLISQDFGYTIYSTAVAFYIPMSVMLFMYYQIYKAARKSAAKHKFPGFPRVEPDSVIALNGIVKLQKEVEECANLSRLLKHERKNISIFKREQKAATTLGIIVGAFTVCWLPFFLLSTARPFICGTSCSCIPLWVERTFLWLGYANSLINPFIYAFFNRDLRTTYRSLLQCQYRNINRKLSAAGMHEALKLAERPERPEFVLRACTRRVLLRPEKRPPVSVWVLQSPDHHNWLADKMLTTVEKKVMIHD

[23] = molecular target: Y2 (h) (Homo sapiens, UniProt P49146); assay: CEREP ExpresSProfile; settings: read-out: Mean % of control specific binding (±SD)
Y2 (h), sequence (P49146 whole entry): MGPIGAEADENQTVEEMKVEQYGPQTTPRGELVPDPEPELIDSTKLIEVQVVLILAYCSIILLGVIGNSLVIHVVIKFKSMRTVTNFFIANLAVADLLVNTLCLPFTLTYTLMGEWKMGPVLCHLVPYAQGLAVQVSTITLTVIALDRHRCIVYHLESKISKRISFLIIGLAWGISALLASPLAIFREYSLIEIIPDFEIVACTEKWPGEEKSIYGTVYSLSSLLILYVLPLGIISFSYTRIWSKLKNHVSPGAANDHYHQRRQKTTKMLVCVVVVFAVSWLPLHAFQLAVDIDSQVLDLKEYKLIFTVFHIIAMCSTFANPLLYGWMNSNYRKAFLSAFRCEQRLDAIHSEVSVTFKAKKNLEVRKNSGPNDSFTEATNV

[24] = molecular target: BRD3 BD1 WT (Homo sapiens, UniProt Q15059); assay: ITC; type: binding
BRD3 BD1 WT, sequence (Q15059 24-144): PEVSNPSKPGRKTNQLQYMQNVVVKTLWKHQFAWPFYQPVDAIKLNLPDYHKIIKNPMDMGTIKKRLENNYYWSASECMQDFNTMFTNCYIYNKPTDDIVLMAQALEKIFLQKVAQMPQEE

[25] = molecular target: NTS1 (NT1) (h) (Homo sapiens, UniProt P30989); assay: CEREP ExpresSProfile; settings: read-out: Mean % of control specific binding (±SD)
[26] = molecular target: T2, BRD4 BD1 L/V; assay: competitive AlphaLISA; type: binding; settings: total compound concentration
[27] = WT Cell Cytotoxicity (CellTiter-Glo); settings: human, MV4-11 cells (BET-dependent AML cell line)
[28] = tested on: MV4-11; assay: WT Cell Cytotoxicity (CellTiter-Glo); settings: MV4-11 and HL-60
[29] = molecular target: BRD3 BD1 L/V (Homo sapiens, UniProt Q15059, L70V); assay: ITC; type: binding
BRD3 BD1 L/V, sequence (Q15059 24-144 L70V limits assumed): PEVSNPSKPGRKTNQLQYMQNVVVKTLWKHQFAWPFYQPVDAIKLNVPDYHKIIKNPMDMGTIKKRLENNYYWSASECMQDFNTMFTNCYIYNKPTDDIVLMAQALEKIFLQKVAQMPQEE

[30] = molecular target: BRD3 BD2 L/V (Homo sapiens, UniProt Q15059, L345V); assay: ITC; type: binding
BRD3 BD2 L/V, sequence (Q15059 306-416 L345V limits assumed): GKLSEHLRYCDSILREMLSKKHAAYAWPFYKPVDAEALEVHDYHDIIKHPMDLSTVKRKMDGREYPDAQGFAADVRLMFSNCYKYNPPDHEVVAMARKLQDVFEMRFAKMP

[31] = molecular target: BRD4 BD2 WT (Homo sapiens, UniProt O60885); assay: ITC; type: binding
[32] = molecular target: 5-HT2A (h) (Homo sapiens, UniProt P28223); assay: CEREP ExpresSProfile; settings: read-out: Mean % of control specific binding (±SD)
5-HT2A (h), sequence (P28223 whole entry): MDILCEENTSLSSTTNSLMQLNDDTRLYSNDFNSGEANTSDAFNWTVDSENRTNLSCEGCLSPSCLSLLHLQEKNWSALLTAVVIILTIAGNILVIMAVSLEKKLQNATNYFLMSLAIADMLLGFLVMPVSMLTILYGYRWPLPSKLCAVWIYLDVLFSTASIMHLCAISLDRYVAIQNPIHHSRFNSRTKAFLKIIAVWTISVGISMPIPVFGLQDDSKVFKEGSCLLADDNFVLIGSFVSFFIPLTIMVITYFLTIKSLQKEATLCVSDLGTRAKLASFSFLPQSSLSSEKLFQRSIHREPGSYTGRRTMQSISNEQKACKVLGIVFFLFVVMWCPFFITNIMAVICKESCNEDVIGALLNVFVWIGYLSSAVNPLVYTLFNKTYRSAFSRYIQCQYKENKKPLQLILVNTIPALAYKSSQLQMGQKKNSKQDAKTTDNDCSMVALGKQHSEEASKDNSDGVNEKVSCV
Description: as §1
Receptor & Ion-Channel Screening
CEREP ExpresSProfile panel

[33] = molecular target: BRD3 BD2 WT (Homo sapiens, UniProt Q15059); assay: ITC; type: binding
BRD3 BD2 WT, sequence (Q15059 306-416): as the sequence (Q15059 306-416 L345V limits assumed) above, with V40L counted along it

SMILES: COC(=O)[C@H](C)[C@@H]1N=C(c2ccc(Cl)cc2)c2ccc(OC)cc2-n2c(C)nnc21 [(2R,3S)-7]
- potency [1]: ~200 nM
- displacement of L/V BRD4 (FRAP) [2]: almost complete displacement
- Kd [3]: 300 nM
- Mean % of control specific binding (±SD) [4]: 110 (1) %
- Mean % of control specific binding (±SD) [5]: 103 (10) %
- Mean % of control specific binding (±SD) [6]: 99 (12) %
- remaining activity at 1 µM [7]: 105%
- IC50 [8]: 7940 nM
- remaining activity at 1 µM [9]: 119%
- Kd [10]: 43000 nM
- Kd [11]: 200 nM
- remaining activity at 1 µM [12]: 108%
- remaining activity at 1 µM [13]: 104%
- ΔH BRD4 BD1 L/V ([14]; ITC): -7.9 ± 0.1 kcal/mol
- Kd ([14]; Kd BRD4 BD1 L/V, ITC of separated enantiomers and racemates): 170 ± 20 nM
- remaining activity at 1 µM [15]: 84%
- Kd [16]: 58000 ± 4000 nM
- ΔH BRD4 BD1 WT ([16]; ITC, total compound concentration): -13.3 ± 0.5 kcal/mol
- remaining activity at 1 µM [17]: 87%
- remaining activity at 1 µM [18]: 99%
- remaining activity at 1 µM [19]: 90%
- Kd [20]: 210 nM
- Kd [21]: > 60000 nM
- remaining activity at 1 µM [22]: 106%
- remaining activity at 1 µM [23]: 110%
- Kd [24]: 7500 nM
- remaining activity at 1 µM [25]: 106%
- ΔpIC50 BRD4 BD1 ([26]; L/V minus WT): 1.7
- IC50 ([26]; pIC50 BRD4 BD1 L/V, separated enantiomers test): 158 nM
- CC50 at 48 h [27]: 2510 nM
- cytotoxicity [28]: no cytotoxicity below 1 μM
- Kd [29]: 90 nM
- Kd [30]: 310 nM
- Kd [31]: 29000 nM
- remaining activity at 1 µM [32]: 100%
- Kd [33]: 24000 nM
